Measured values as given in ChEMBL document CHEMBL3044799, “Biological activity of the succinate dehydrogenase inhibitor fluopyram against Botrytis cinerea and fungal baseline sensitivity” (Pest Manag Sci, 2012).
Values after ≈ are worked out from the molar mass of the structure shown. Active and inactive are the calls of the source. No cut-off for these calls is given here.

Legend:
Botrytis cinerea [1] = test: Antifungal activity against Botryotinia fuckeliana obtained from cucumber isolate assessed as inhibition of spore germ tube growth; type: functional, organism-based
Botrytis cinerea [2] = test: Curative antifungal activity against Botryotinia fuckeliana inoculated in strawberry fruit assessed as disease control efficacy at 10 ug AI/ml applied 48 hr post-inoculation relative to control; type: functional
Botrytis cinerea [3] = test: Protective antifungal activity against Botryotinia fuckeliana inoculated in fungicide-applied strawberry fruit assessed as disease control efficacy at 100 ug AI/ml applied 96 hr prior-inoculation relative to control; type: functional
Botrytis cinerea [4] = test: Protective antifungal activity against Botryotinia fuckeliana inoculated in fungicide-applied strawberry fruit assessed as disease control efficacy at 1 ug AI/ml applied 48 hr prior inoculation relative to control; type: functional
Botrytis cinerea [5] = test: Curative antifungal activity against Botryotinia fuckeliana inoculated in strawberry fruit assessed as disease severity measuring lesion diameter at 50 ug AI/ml applied 48 hr post-inoculation; type: functional
Botrytis cinerea [6] = test: Curative antifungal activity against Botryotinia fuckeliana inoculated in strawberry fruit assessed as disease control efficacy at 50 ug AI/ml applied 48 hr post-inoculation relative to control; type: functional
Botrytis cinerea [7] = test: Protective antifungal activity against Botryotinia fuckeliana inoculated in fungicide-applied strawberry fruit assessed as disease severity measuring lesion diameter at 100 ug AI/ml applied 48 hr prior inoculation; type: functional
Botrytis cinerea [8] = test: Protective antifungal activity against Botryotinia fuckeliana inoculated in fungicide-applied strawberry fruit assessed as disease control efficacy at 100 ug AI/ml applied 24 hr prior inoculation relative to control; type: functional
Botrytis cinerea [9] = test: Protective antifungal activity against Botryotinia fuckeliana inoculated in fungicide-applied strawberry fruit assessed as disease control efficacy at 10 ug AI/ml applied 96 hr prior-inoculation relative to control; type: functional
Botrytis cinerea [10] = test: Protective antifungal activity against Botryotinia fuckeliana inoculated in fungicide-applied strawberry fruit assessed as disease severity measuring lesion diameter at 1 ug AI/ml applied 24 hr prior inoculation; type: functional
Botrytis cinerea [11] = test: Antifungal activity against Botryotinia fuckeliana grown on succinate medium assessed as inhibition of germ tube growth at 5 ug/ml after 10 days; type: functional, organism-based
Botrytis cinerea [12] = test: Protective antifungal activity against Botryotinia fuckeliana inoculated in fungicide-applied strawberry fruit assessed as disease severity measuring lesion diameter at 50 ug AI/ml applied 24 hr prior inoculation; type: functional
Botrytis cinerea [13] = test: Curative antifungal activity against Botryotinia fuckeliana inoculated in strawberry fruit assessed as disease severity measuring lesion diameter at 1 ug AI/ml applied 24 hr post-inoculation; type: functional
Botrytis cinerea [14] = test: Curative antifungal activity against Botryotinia fuckeliana inoculated in strawberry fruit assessed as disease control efficacy at 100 ug AI/ml applied 24 hr post-inoculation relative to control; type: functional
Botrytis cinerea [15] = test: Protective antifungal activity against Botryotinia fuckeliana inoculated in fungicide-applied strawberry fruit assessed as disease severity measuring lesion diameter at 50 ug AI/ml applied 48 hr prior inoculation; type: functional
Botrytis cinerea [16] = test: Antifungal activity against Botryotinia fuckeliana grown on YBA agar assessed as inhibition of germ tube growth at 1 ug/ml after 10 days; type: functional, organism-based
Botrytis cinerea [17] = test: Curative antifungal activity against Botryotinia fuckeliana inoculated in strawberry fruit assessed as disease control efficacy at 50 ug AI/ml applied 96 hr post-inoculation relative to control; type: functional
Botrytis cinerea [18] = test: Protective antifungal activity against Botryotinia fuckeliana inoculated in fungicide-applied strawberry fruit assessed as disease control efficacy at 50 ug AI/ml applied 96 hr prior-inoculation relative to control; type: functional
Botrytis cinerea [19] = test: Protective antifungal activity against Botryotinia fuckeliana inoculated in fungicide-applied strawberry fruit assessed as disease severity measuring lesion diameter at 10 ug AI/ml applied 48 hr prior inoculation; type: functional
Botrytis cinerea [20] = test: Curative antifungal activity against Botryotinia fuckeliana inoculated in strawberry fruit assessed as disease severity measuring lesion diameter at 10 ug AI/ml applied 48 hr post-inoculation; type: functional
Botrytis cinerea [21] = test: Curative antifungal activity against Botryotinia fuckeliana inoculated in strawberry fruit assessed as disease severity measuring lesion diameter at 100 ug AI/ml applied 96 hr post-inoculation; type: functional
Botrytis cinerea [22] = test: Protective antifungal activity against Botryotinia fuckeliana inoculated in fungicide-applied strawberry fruit assessed as disease severity measuring lesion diameter at 100 ug AI/ml applied 96 hr prior-inoculation; type: functional
Botrytis cinerea [23] = test: Curative antifungal activity against Botryotinia fuckeliana inoculated in strawberry fruit assessed as disease control efficacy at 10 ug AI/ml applied 24 hr post-inoculation relative to control; type: functional
Botrytis cinerea [24] = test: Curative antifungal activity against Botryotinia fuckeliana inoculated in strawberry fruit assessed as disease control efficacy at 50 ug AI/ml applied 24 hr post-inoculation relative to control; type: functional
Botrytis cinerea [25] = test: Antifungal activity against Botryotinia fuckeliana grown on succinate medium assessed as inhibition of mycelial growth at 10 ug/ml after 10 days; type: functional, organism-based
Botrytis cinerea [26] = test: Protective antifungal activity against Botryotinia fuckeliana inoculated in fungicide-applied strawberry fruit assessed as disease severity measuring lesion diameter at 50 ug AI/ml applied 96 hr prior-inoculation; type: functional
Botrytis cinerea [27] = test: Protective antifungal activity against Botryotinia fuckeliana inoculated in fungicide-applied strawberry fruit assessed as disease severity measuring lesion diameter at 10 ug AI/ml applied 96 hr prior-inoculation; type: functional
Botrytis cinerea [28] = test: Curative antifungal activity against Botryotinia fuckeliana inoculated in strawberry fruit assessed as disease severity measuring lesion diameter at 50 ug AI/ml applied 96 hr post-inoculation; type: functional
Botrytis cinerea [29] = test: Antifungal activity against Botryotinia fuckeliana obtained from kiwi fruit isolate assessed as inhibition of spore germ tube growth; type: functional, organism-based
Botrytis cinerea [30] = test: Curative antifungal activity against Botryotinia fuckeliana inoculated in strawberry fruit assessed as disease severity measuring lesion diameter at 10 ug AI/ml applied 96 hr post-inoculation; type: functional
Botrytis cinerea [31] = test: Antifungal activity against Botryotinia fuckeliana grown on water agar assessed as inhibition of spore germination at 1 ug/ml after 10 days; type: functional, organism-based
Botrytis cinerea [32] = test: Curative antifungal activity against Botryotinia fuckeliana inoculated in strawberry fruit assessed as disease control efficacy at 1 ug AI/ml applied 48 hr post-inoculation relative to control; type: functional
Botrytis cinerea [33] = test: Antifungal activity against Botryotinia fuckeliana grown on YBA agar assessed as inhibition of spore germination at 1 ug/ml after 10 days; type: functional, organism-based
Botrytis cinerea [34] = test: Protective antifungal activity against Botryotinia fuckeliana inoculated in fungicide-applied strawberry fruit assessed as disease control efficacy at 50 ug AI/ml applied 48 hr prior inoculation relative to control; type: functional
Botrytis cinerea [35] = test: Protective antifungal activity against Botryotinia fuckeliana inoculated in fungicide-applied strawberry fruit assessed as disease control efficacy at 100 ug AI/ml applied 48 hr prior inoculation relative to control; type: functional
Botrytis cinerea [36] = test: Protective antifungal activity against Botryotinia fuckeliana inoculated in fungicide-applied strawberry fruit assessed as disease severity measuring lesion diameter at 1 ug AI/ml applied 48 hr prior inoculation; type: functional
Botrytis cinerea [37] = test: Antifungal activity against Botryotinia fuckeliana grown on water agar assessed as inhibition of germ tube growth at 1 ug/ml after 10 days; type: functional, organism-based
Botrytis cinerea [38] = test: Antifungal activity against Botryotinia fuckeliana assessed as inhibition of germ tube growth at 0.001 to 10 ug/ml after 10 days; type: functional, organism-based
Botrytis cinerea [39] = test: Protective antifungal activity against Botryotinia fuckeliana inoculated in fungicide-applied strawberry fruit assessed as disease severity measuring lesion diameter at 10 ug AI/ml applied 24 hr prior inoculation; type: functional

## O=C(NCCc1ncc(C(F)(F)F)cc1Cl)c1ccccc1C(F)(F)F [FLUOPYRAM]
Botrytis cinerea [1]
  EC50: 0.1 µg/mL (≈ 0.252 µM)
Botrytis cinerea [2]
  Efficacy: 81.2%
Botrytis cinerea [3]
  Efficacy: 93.9%
Botrytis cinerea [4]
  Efficacy: 54.3%
Botrytis cinerea [5]
  Activity: 3.2 mm
Botrytis cinerea [6]
  Efficacy: 82.9%
Botrytis cinerea [7]
  Activity: 1.1 mm
Botrytis cinerea [8]
  Efficacy: 100%
Botrytis cinerea [9]
  Efficacy: 66.3%
Botrytis cinerea [10]
  Activity: 6.3 mm
Botrytis cinerea [11]
  growth inhibition (GI): Active
Botrytis cinerea [12]
  Activity: 1.1 mm
Botrytis cinerea [13]
  Activity: 8.8 mm
Botrytis cinerea [14]
  Efficacy: 79.3%
Botrytis cinerea [15]
  Activity: 2.3 mm
Botrytis cinerea [16]
  growth inhibition (GI): Active
Botrytis cinerea [17]
  Efficacy: 45.1%
Botrytis cinerea [18]
  Efficacy: 79.2%
Botrytis cinerea [19]
  Activity: 5.5 mm
Botrytis cinerea [20]
  Activity: 3.5 mm
Botrytis cinerea [21]
  Activity: 7 mm
Botrytis cinerea [22]
  Activity: 0.7 mm
Botrytis cinerea [23]
  Efficacy: 69.7%
Botrytis cinerea [24]
  Efficacy: 77.3%
Botrytis cinerea [25]
  growth inhibition (GI): inactive
Botrytis cinerea [26]
  Activity: 3.9 mm
Botrytis cinerea [27]
  Activity: 4.2 mm
Botrytis cinerea [28]
  Activity: 10.3 mm
Botrytis cinerea [29]
  EC50: 0.1 µg/mL (≈ 0.252 µM)
Botrytis cinerea [30]
  Activity: 11.1 mm
Botrytis cinerea [31]
  growth inhibition (GI): Active
Botrytis cinerea [32]
  Efficacy: 63.3%
Botrytis cinerea [33]
  growth inhibition (GI): Active
Botrytis cinerea [34]
  Efficacy: 87.7%
Botrytis cinerea [35]
  Efficacy: 95.9%
Botrytis cinerea [36]
  Activity: 8.6 mm
Botrytis cinerea [37]
  growth inhibition (GI): Active
Botrytis cinerea [38]
  growth inhibition (GI): Active
Botrytis cinerea [39]
  Activity: 4.2 mm
